In patent US20250288571A1 (Nested Therapeutics, Inc., priority 2024, published 2025):
Where two headings read alike, the source gives them in different places.

Legend:
IPC298 cells = assay: IPC298 Cell Titer Glow assay (CTG); conditions: Homo sapiens, IPC-298, 72 h; for IC50: read-out: CTG IC50 (nM) Cell Line: IPC298.2
Procedure: HCT116 and IPC298 Cell Titer Glow Assay (CTG)
HCT116 cells and IPC298 cells were diluted with culture medium to the desired density 500 cells/well and 40 μL of cell suspension were added into each well of 384-well cell culture plate. […] The plates were covered and stored at room temperature for 30 minutes without shaking and then the plates were transferred into a 37° C. 5% CO2 incubator overnight.
A 10 mM solution in dimethyl sulfoxide (DMSO) was prepared for each test compound. A 3 fold, 10-point dilution was prepared from the stock solution. 40 nl of each solution in 100% DMSO was added to the 384-well plate and diluted to a final 0.1% DMSO final concentration. The plates were then incubated for 72 hours (for both cell lines) at 37° C.
CellTiter-Glo® 2.0 Reagent (Promega, G9242) was removed from the refrigerator and equilibrated at room temperature (23° C.) for 60 minutes. The plates were then removed from the incubator and allowed to equilibrate to room temperature. 30 μL CellTiter-Glo® 2.0 Reagent were added to the assay plates, and spun 1 min/1000 rpm. The plates were allowed to stand for about 20 minutes before being read on Envision using a standard luminescence readout. DMSO was employed as negative control (High control, HC) and 1 uM Staurosporine was employed as positive control (Low control, LC).
The percent (%) inhibition at each concentration of compound was calculated based on the signal in the negative and positive control wells contained within each assay plate.

HCT116 cells = assay: HCT116 Cell Titer Glow assay (CTG); conditions: Homo sapiens, HCT-116, 72 h; for IC50: read-out: CTG IC50 (nM) Cell Line: HCT116.20

Compound	IC50 (IPC298 cells) [nM]	viability at 1000 µM (HCT116 cells; read-out: CTG % cell viability 1000 uM HCT116.20, HCT116 cells, 72 hours, 1000 uM, percent cells remaining after treatment) [%]	IC50 (HCT116 cells) [nM]	viability at 100 µM (IPC298 cells; read-out: CTG % cell viability 100 uM IPC298.2) [%]	viability at 1000 µM (HCT116 cells; read-out: CTG % cell viability 1000 uM HCT116.20) [%]
Cc1c(Cc2ccnc(NS(=O)(=O)NC(C)C)c2F)cncc1Oc1ccc(Cl)cc1F [Example 90, 4-[[5-(4-chloro-2-fluoro-phenoxy)-4-methyl-3-pyridyl]methyl]-3-fluoro-N-(isopropylsulfamoyl)pyridin-2-amine]	10 to 100	59.5	> 1000	–	–
CNS(=O)(=O)Nc1nccc(Cc2cncc(Oc3ccc(C)cc3F)c2C)c1OC [Example 91, 4-[[5-(2-fluoro-4-methyl-phenoxy)-4-methyl-3-pyridyl]methyl]-3-methoxy-N-(methylsulfamoyl)pyridin-2-amine]	< 10	–	10 to 100	–	–
CNS(=O)(=O)Nc1nccc(Cc2cncc(OC3CC4(C3)CN(C)C4)c2C)c1F [Example 92, 3-fluoro-4-[[4-methyl-5-[(2-methyl-2-azaspiro[3.3]heptan-6-yl)oxy]-3-pyridyl]methyl]-N-(methylsulfamoyl)pyridin-2-amine]	> 1000	–	> 1000	101	103
CNS(=O)(=O)Nc1nccc(Cc2cncc(Oc3ccc(Cl)cc3F)c2C)c1OC [Example 93, 4-[[5-(4-chloro-2-fluoro-phenoxy)-4-methyl-3-pyridyl]methyl]-3-methoxy-N-(methylsulfamoyl)pyridin-2-amine]	< 10	–	10 to 100	–	–
CNS(=O)(=O)Nc1nccc(Cc2cncc(Oc3ccc(OC)cc3F)c2C)c1F [Example 94, 3-fluoro-4-[[5-(2-fluoro-4-methoxy-phenoxy)-4-methyl-3-pyridyl]methyl]-N-(methylsulfamoyl)pyridin-2-amine]	< 10	–	100 to 500	–	–
CCNS(=O)(=O)Nc1nccc(Cc2cncc(Nc3ccc(C)cc3F)c2C)c1F [Example 95, N-(ethylsulfamoyl)-3-fluoro-4-[[5-(2-fluoro-4-methyl-anilino)-4-methyl-3-pyridyl]methyl]pyridin-2-amine]	< 10	–	10 to 100	–	–
Cc1ccc(Nc2cncc(Cc3ccnc(NS(N)(=O)=O)c3F)c2C)c(F)c1 [Example 96, 3-fluoro-4-[[5-(2-fluoro-4-methyl-anilino)-4-methyl-3-pyridyl]methyl]-2-(sulfamoylamino)pyridine]	< 10	–	10 to 100	–	–
CNS(=O)(=O)Nc1nccc(Oc2cncc(Nc3ccc(C4CC4)cc3F)c2C)c1F [Example 97, 4-[[5-(4-cyclopropyl-2-fluoro-anilino)-4-methyl-3-pyridyl]oxy]-3-fluoro-N-(methylsulfamoyl)pyridin-2-amine]	< 10	–	< 10	–	–
CNS(=O)(=O)Nc1nccc(Cc2cncc(Oc3ccc(C4CC4)cc3F)c2C)c1F [Example 99, 4-[[5-(4-cyclopropyl-2-fluoro-phenoxy)-4-methyl-3-pyridyl]methyl]-3-fluoro-N-(methylsulfamoyl)pyridin-2-amine]	< 10	–	< 10	–	–
CNS(=O)(=O)Nc1nccc(Oc2cncc(Oc3ccc(Br)cc3F)c2C)c1F [Example 100, 4-[[5-(4-bromo-2-fluoro-phenoxy)-4-methyl-3-pyridyl]oxy]-3-fluoro-N-(methylsulfamoyl)pyridin-2-amine]	< 10	–	10 to 100	–	–
[2H]C([2H])([2H])c1ccc(Oc2cncc(Cc3ccnc(NS(=O)(=O)NC)c3F)c2C)c(F)c1 [Example 101, 3-fluoro-4-[[5-[2-fluoro-4-(trideuteriomethyl)phenoxy]-4-methyl-3-pyridyl]methyl]-N-(methylsulfamoyl)pyridin-2-amine]	< 10	–	10 to 100	–	–
CNS(=O)(=O)Nc1nccc(Oc2cncc(Oc3ccc(C4CC4)cc3F)c2C)c1F [Example 102, 4-[[5-(4-cyclopropyl-2-fluoro-phenoxy)-4-methyl-3-pyridyl]oxy]-3-fluoro-N-(methylsulfamoyl)pyridin-2-amine]	< 10	–	10 to 100	–	–
CNS(=O)(=O)Nc1nccc(Cc2cncc(Oc3ccc(C)c(F)c3)c2C)c1F [Example 103, 3-fluoro-4-[[5-(3-fluoro-4-methyl-phenoxy)-4-methyl-3-pyridyl]methyl]-N-(methylsulfamoyl)pyridin-2-amine]	< 10	–	100 to 500	–	–
